Data as given in US7838238B2, “Method for screening anti-HIV Drugs and a diagnostic method of AIDS” (CellFree Sciences Co., Ltd., priority 2008, dated 2010).
Peptide text beside a SMILES is read from it. * marks the point of attachment. Cbz = O=C(OCc1ccccc1)*

Test system: intracellular Gag in SOCS1-siRNA HeLa cells
Test: Immunoblotting of intracellular Gag-GFP in SOCS1-siRNA HeLa cells treated with NH4Cl or MG132
Type: cell-based, human
Protocol: (F) HeLa cells were transfected with Cag-GFP and cotransfected with either control-siRNA or SOCS1-siRNA I. After 36 hours, the cells were treated with a mock solution, 10 mM NH4Cl or 10 μM MG132 for another 16 hours. Cell were then harvested and subjected to immunoblotting analysis with anti-GCF or anti-β-actin antibodies.

| Compound | level of intracellular Gag (10 μM MG132, 16 hours) | level of intracellular Gag (10 mM NH4Cl, 16 hours) |
| --- | --- | --- |
| CC(C)C[C@@H](C=O)NC(=O)[C@H](CC(C)C)NC(=O)[C@H](CC(C)C)NC(=O)OCc1ccccc1 [MG132] (Cbz-Leu-Leu-Leu-aldehyde) | not | – |
| Cl.N [NH4Cl] | – | significantly increased |
